Results from ChEMBL document CHEMBL1201862, “PubChem BioAssay data set” (2004).
Calls of active or inactive are those of the source.

Experiments:
[1] = target: Glycogen synthase kinase-3 alpha (Homo sapiens, UniProt P49840); assay: Inhibition of Human GSK-3 alpha Activity Measured in Biochemical System Using Microfluidics - 2063-06_Inhibitor_Dose_DryPowder_Activity_Set2. [Related pubchem assays (depositor defined):AID2709]
[2] = target: T1, Glycogen synthase kinase-3 beta (Homo sapiens, UniProt P49841); assay: Inhibition of Human GSK-3 beta Activity Measured in Biochemical System Using Microfluidics - 2063-05_Inhibitor_Dose_DryPowder_Activity_Set2. [Related pubchem assays (depositor defined):AID2709]
T1 sequence (P49841 whole entry): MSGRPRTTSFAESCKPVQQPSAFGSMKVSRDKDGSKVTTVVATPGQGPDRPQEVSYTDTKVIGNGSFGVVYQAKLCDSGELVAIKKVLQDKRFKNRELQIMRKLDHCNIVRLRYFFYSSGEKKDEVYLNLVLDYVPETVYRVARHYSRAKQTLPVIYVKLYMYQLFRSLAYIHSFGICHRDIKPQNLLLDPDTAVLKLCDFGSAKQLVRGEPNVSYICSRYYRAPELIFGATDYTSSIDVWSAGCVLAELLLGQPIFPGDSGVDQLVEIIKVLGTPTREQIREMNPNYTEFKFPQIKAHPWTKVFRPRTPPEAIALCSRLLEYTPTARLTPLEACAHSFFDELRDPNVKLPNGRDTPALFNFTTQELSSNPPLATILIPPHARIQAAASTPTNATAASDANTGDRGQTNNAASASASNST

[3] = target: T2, Ubiquitin-conjugating enzyme E2 N (Homo sapiens, UniProt P61088); type: functional;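 note: Dose-response confirmation in a TR-FRET assay detecting UBC13-driven polyubiquitin chain formation, inhibition measured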
T2 sequence (P61088 whole entry): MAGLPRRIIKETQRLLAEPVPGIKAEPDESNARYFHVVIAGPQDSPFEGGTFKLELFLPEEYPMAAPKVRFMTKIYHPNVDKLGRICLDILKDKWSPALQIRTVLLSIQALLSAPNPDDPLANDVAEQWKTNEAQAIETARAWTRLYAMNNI

[4] = target: Cyclin-dependent kinase 5/CDK5 activator 1 (Homo sapiens, UniProt Q00535); assay: CDK5-p25 kinase inhibitors, specificity check, dose response, selectivity assay for GSK-3 alpha inhibitor project, biochemical, microfluidic mobility shift, dry powder (AID 588430)
Chain of Cyclin-dependent kinase 5/CDK5 activator 1 (Q00535 whole entry): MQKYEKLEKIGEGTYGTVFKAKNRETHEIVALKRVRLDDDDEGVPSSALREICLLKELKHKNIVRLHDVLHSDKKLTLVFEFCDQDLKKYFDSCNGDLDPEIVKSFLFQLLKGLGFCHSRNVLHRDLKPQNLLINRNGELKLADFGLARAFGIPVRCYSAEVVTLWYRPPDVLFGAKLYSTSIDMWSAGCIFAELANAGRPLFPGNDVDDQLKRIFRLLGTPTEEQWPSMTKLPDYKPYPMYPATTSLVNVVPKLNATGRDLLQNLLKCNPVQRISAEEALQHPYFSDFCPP
Chain of Cyclin-dependent kinase 5/CDK5 activator 1 (Q15078 whole entry, further chain): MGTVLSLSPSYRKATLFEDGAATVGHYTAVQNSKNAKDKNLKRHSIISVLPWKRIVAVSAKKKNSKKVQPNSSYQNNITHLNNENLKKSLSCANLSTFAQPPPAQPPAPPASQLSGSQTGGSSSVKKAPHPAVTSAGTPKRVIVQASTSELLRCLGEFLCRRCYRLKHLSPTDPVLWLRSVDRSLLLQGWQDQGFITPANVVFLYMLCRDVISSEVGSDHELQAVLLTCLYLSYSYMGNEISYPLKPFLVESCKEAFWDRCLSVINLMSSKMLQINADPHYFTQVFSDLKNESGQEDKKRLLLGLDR

[5] = target: Homeodomain-interacting protein kinase 2 (Homo sapiens, UniProt Q9H2X6); type: functional;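 note: measured within a kinome-wide kinase profiling panel, HIPK2 being one panel member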
Chain of Homeodomain-interacting protein kinase 2 (Q9H2X6 whole entry): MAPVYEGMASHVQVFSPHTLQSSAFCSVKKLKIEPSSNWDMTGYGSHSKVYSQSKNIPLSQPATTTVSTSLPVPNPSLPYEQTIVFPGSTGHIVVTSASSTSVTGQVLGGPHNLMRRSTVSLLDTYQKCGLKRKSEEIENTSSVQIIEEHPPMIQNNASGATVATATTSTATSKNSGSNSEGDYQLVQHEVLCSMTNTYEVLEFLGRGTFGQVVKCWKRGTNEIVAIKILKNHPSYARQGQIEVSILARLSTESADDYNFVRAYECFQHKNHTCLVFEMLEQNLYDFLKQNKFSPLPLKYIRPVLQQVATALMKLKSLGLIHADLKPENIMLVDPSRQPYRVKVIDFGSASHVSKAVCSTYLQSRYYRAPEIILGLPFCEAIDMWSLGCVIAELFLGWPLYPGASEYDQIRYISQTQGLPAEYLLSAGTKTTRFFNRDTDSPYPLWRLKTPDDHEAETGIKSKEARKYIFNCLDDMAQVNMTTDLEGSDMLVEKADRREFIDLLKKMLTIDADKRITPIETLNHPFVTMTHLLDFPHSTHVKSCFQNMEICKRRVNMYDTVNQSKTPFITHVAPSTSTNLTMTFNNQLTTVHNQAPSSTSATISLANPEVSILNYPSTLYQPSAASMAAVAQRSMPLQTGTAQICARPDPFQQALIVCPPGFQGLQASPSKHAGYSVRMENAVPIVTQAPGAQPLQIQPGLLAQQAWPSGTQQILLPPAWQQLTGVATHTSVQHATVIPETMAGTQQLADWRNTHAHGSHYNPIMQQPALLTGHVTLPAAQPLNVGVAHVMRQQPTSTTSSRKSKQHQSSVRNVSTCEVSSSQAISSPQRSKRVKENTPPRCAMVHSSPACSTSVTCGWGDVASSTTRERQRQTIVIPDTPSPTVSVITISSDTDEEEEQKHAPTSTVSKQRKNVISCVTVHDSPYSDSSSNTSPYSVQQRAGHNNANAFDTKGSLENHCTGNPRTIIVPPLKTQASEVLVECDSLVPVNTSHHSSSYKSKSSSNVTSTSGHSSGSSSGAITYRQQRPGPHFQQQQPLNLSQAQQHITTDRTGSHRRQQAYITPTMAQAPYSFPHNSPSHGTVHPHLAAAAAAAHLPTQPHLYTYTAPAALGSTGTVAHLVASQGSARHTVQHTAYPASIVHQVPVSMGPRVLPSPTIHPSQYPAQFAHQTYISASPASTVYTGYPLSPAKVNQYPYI

[6] = target: Serine/threonine-protein kinase pim-1 (Homo sapiens, UniProt P11309); type: functional
Chain of Serine/threonine-protein kinase pim-1 (P11309 whole entry): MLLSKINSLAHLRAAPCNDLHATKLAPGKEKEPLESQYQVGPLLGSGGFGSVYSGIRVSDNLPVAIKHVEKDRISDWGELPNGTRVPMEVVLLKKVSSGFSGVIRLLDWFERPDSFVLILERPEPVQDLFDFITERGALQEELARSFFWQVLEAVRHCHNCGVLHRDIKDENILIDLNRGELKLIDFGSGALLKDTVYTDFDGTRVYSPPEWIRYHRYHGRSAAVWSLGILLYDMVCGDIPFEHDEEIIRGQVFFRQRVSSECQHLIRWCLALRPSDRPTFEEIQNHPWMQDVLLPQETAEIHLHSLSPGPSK

[7] = target: T1, Glycogen synthase kinase-3 beta; type: functional
[8] = target: Cell division cycle 7-related protein kinase (Homo sapiens, UniProt O00311); type: functional;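 note: value obtained from a kinome-wide kinase panel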
[9] = target: ALK tyrosine kinase receptor (Homo sapiens, UniProt Q9UM73); type: functional;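 note: ALK tested as one member of a kinase panel screen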
Chain of ALK tyrosine kinase receptor (Q9UM73 whole entry): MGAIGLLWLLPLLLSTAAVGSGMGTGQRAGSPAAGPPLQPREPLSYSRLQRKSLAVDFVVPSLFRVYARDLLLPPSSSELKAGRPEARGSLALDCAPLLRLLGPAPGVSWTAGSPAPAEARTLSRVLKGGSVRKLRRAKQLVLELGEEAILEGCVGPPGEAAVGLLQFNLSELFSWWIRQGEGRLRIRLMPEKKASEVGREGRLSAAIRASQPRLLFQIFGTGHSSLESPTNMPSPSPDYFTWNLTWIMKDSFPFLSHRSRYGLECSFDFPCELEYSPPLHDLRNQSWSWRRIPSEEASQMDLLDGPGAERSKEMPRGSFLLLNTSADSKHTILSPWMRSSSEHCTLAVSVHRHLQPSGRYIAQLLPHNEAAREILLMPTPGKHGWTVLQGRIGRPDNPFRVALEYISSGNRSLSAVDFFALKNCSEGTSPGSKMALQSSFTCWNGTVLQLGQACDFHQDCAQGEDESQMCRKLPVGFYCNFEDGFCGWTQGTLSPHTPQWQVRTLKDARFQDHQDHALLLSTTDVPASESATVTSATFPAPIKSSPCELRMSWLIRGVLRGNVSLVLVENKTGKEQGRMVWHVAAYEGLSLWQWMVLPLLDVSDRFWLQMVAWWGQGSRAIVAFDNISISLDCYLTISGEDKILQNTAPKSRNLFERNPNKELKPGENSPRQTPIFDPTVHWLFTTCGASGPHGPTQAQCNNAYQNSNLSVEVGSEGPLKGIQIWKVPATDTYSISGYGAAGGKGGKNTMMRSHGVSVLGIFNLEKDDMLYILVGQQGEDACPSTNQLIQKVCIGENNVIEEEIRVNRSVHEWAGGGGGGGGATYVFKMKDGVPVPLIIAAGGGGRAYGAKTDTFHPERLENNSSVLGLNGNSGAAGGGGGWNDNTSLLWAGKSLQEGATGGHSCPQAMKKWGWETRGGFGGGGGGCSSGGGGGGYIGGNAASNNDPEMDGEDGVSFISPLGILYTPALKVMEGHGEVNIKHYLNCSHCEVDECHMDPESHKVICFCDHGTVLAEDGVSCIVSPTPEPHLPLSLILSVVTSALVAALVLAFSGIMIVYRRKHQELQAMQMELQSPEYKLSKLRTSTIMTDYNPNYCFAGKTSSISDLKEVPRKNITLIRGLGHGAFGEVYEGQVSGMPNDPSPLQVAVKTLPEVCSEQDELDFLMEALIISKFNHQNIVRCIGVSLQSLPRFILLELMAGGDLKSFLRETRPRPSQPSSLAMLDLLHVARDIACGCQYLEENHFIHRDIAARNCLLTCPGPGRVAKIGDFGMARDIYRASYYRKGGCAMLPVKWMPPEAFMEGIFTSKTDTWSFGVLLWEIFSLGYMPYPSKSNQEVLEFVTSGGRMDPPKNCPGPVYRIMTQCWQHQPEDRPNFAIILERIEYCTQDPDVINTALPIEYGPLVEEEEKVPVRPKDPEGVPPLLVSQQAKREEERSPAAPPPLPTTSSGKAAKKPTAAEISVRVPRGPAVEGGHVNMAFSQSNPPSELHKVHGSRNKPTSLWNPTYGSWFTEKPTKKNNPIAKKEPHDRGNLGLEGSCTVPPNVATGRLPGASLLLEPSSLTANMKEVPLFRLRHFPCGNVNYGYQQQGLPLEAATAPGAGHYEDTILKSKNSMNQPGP

[10] = target: Interleukin-1 receptor-associated kinase 4 (Homo sapiens, UniProt Q9NWZ3); type: functional
Chain of Interleukin-1 receptor-associated kinase 4 (Q9NWZ3 whole entry): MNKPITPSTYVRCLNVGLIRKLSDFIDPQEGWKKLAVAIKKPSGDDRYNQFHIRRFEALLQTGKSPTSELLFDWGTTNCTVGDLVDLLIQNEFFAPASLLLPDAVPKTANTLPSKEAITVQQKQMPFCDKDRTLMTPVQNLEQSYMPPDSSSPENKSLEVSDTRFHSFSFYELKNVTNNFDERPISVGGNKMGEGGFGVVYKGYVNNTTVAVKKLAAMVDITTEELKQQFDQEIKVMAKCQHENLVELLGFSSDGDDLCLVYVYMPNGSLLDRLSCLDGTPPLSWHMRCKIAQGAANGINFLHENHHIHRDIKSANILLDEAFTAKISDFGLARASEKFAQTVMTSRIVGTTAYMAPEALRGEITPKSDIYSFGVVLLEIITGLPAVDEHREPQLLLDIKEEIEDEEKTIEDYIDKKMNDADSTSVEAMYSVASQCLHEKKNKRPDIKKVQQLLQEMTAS

[11] = target: cAMP-dependent protein kinase catalytic subunit alpha (Homo sapiens, UniProt P17612); type: functional
[12] = target: T3, Apoptotic protease-activating factor 1 (Homo sapiens, UniProt O14727); assay: SAR analysis of small molecule inhibitors of Apaf-1 in a Fluorescent assay.; type: functional; details: read-out: IC50_Mean
T3 sequence (O14727 whole entry): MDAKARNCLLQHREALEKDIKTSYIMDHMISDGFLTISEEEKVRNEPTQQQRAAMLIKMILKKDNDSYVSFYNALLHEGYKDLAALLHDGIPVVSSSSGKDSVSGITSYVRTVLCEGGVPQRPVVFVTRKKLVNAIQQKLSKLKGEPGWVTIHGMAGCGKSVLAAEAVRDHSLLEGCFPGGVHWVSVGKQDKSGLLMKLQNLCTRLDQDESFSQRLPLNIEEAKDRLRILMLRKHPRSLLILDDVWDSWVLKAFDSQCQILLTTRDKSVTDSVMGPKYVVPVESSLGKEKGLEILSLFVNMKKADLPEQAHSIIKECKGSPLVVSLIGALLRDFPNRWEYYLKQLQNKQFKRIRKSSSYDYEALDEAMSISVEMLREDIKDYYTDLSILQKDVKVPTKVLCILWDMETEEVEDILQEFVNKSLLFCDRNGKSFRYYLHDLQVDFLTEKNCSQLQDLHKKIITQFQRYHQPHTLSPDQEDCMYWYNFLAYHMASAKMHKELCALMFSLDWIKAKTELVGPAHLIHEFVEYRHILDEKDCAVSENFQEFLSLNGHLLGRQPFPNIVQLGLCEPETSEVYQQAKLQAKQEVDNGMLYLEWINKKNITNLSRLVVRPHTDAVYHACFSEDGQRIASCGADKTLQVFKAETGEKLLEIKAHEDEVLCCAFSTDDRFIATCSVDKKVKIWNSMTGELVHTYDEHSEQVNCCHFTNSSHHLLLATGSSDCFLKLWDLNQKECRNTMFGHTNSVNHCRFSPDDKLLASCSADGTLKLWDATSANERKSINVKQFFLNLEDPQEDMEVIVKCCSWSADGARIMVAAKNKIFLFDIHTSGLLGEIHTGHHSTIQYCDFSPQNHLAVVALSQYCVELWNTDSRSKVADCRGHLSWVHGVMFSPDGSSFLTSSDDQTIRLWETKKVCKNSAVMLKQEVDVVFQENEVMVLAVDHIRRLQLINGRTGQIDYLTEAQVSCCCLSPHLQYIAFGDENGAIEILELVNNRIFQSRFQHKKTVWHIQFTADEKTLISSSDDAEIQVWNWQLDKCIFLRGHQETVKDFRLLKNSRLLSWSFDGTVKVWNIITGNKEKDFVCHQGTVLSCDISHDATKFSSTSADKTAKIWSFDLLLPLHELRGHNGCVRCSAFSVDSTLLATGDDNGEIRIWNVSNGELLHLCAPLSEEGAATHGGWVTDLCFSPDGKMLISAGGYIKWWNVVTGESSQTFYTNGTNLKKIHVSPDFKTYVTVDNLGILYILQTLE

[13] = target: Testis-specific serine/threonine-protein kinase 2 (Homo sapiens, UniProt Q96PF2); type: functional;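 note: part of the Navigating the Kinome panel, target entry STK22B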
Chain of Testis-specific serine/threonine-protein kinase 2 (Q96PF2 whole entry): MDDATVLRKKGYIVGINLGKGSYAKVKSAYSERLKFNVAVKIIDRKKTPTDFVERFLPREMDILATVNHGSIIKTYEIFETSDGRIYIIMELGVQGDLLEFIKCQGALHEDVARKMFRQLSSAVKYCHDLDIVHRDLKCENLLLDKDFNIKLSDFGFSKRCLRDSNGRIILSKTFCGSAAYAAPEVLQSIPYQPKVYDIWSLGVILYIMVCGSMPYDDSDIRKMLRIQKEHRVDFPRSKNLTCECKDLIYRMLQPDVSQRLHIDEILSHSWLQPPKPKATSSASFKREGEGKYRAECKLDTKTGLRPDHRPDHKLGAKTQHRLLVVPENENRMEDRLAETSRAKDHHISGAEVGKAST

O/N=C/c1cn(-c2ccccc2)nc1-c1ccc2c(c1)OCCO2
AC50 [1]: 0.984 µM (active) | AC50 [2]: 0.351 µM (active) | IC50 [3]: > 20 µM (inactive) | AC50 [4]: 28.4 µM (active)

CN(Cc1ccccc1)c1cc(-c2c[nH]c3ncccc23)cc(Cl)n1
Ki [5]: 0.158 µM (active) | Ki [6]: 0.251 µM (active) | Ki [7]: 0.0398 µM (active) | Ki [8]: 0.00794 µM (active) | Ki [9]: > 5.01 µM (inactive) | Ki [10]: 0.2 µM (active) | Ki [11]: 0.0398 µM (active)

CC(=O)c1ccc(C(=O)Nc2ccc3[nH]c(C)nc3c2)s1
IC50 [12]: > 100 µM (inactive)

CNC(=O)c1cc(Oc2ccc(NC(=O)Nc3ccc(Cl)c(C(F)(F)F)c3)cc2)ccn1 [SORAFENIB]
Ki [13]: > 1.58 µM (inactive)
